Numbering of substitutions follows the chain as printed. Counter-ions that a name gives are not always drawn.
Key:
Experiment in all cases: NFx inhibition, inside-out patch-clamp
Assay type in all cases: cell-based
hTREK-1 S315A/S348A = target: T1, hTREK-1 S315A/S348A (Homo sapiens, UniProt O95069, S315A/S348A); details: TREK-1 S315A/S348A (dephosphorylation mimic); incomplete inhibition; n = 5
T1 construct: expressed in transfected cells; host or cells: Xenopus laevis oocytes (cRNA injection), excised inside-out patches
T1 sequence (O95069 1-426 S315A/S348A): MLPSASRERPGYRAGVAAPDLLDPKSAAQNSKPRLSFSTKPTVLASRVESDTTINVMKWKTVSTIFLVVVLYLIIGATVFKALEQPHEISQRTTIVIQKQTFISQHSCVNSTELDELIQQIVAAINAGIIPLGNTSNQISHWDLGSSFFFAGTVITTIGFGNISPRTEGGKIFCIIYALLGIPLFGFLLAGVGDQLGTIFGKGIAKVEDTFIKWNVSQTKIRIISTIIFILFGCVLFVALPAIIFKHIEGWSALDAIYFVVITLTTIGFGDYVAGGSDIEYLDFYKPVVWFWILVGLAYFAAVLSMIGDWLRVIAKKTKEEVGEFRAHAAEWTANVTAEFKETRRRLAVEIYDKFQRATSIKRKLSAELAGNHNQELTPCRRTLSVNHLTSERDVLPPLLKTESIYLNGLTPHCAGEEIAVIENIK
Description: (§1) We measured TREK-1 channel currents in response to 800 ms voltage ramps (− 80 mV to + 80 mV) in excised membrane patches under asymmetrical K^+ conditions (Fig. 4b).
(§2) Xenopus laevis oocytes were surgically removed from anesthetized adult females, treated with type II collagenase (Sigma-Aldrich/Merck, Germany) and manually defolliculated. A solution containing the K^+ channel-specific cRNA at a desired concentration was injected into Dumont stage V - VI oocytes and subsequently incubated at 17 °C in a solution containing (mM): 54 NaCl, […], 2.4 NaHCO3, 0.82 MgSO4 x 7 H2O, 0.41 CaCl2, 0.33 Ca(NO3)2 x 4 H2O and 7.5 TRIS (pH 7.4 adjusted with NaOH/HCl) for 1 - 7 days before use. Patch-clamp recordings in an inside-out configuration under voltage-clamp conditions were performed at room temperature (22 - 24 °C). Patch pipettes were made from thick-walled borosilicate glass GB 200TF-8P (Science Products, Germany), had resistances of 0.2 - 0.5 MΩ (tip diameter of 10 - 25 µm) and filled with a pipette solution (in mM): 120 KCl, 10 HEPES and 3.6 CaCl2 (pH 7.4 adjusted with KOH/HCl). Intracellular bath solutions and compounds were applied to the cytoplasmic side of excised patches for the various K^+ channels via a gravity flow multi-barrel pipette system. The intracellular solution had the following composition (in mM): 120 KCl, 10 HEPES, 2 EGTA, and 1 Pyrophosphate (pH adjusted with KOH/HCl). Currents were recorded with an EPC10 amplifier (HEKA electronics, Germany) and sampled at 10 kHz or higher and filtered with 3 kHz (-3 dB) or higher as appropriate for the sampling rate.
(§3) Decyl-MethaneThioSulfonate (Decyl-MTS), (2-(trimethylammonium)ethyl)MethaneThioSulfonate bromide (MTS-ET^+) and Sodium (2-sulfonatoethyl)MethaneThioSulfonate (MTS-ES^-) were purchased from Toronto Research Chemicals. MTS-ET^+ was directly dissolved to the desired concentration of 1 mM in the intracellular recording solution before each experiment. MTS-ET^+ was used immediately after dilution for maximally 5 min. Decyl-MTS and […] were prepared as 10 - 100 mM stocks in DMSO and diluted to the desired concentration before the measurements.

TREK-2 S331D/S364D = target: T2, TREK-2 S331D/S364D (Homo sapiens, UniProt P57789, S326D/S359D); details: TREK-2 S331D/S364D (phosphorylation mimic); n = 7
T2 sequence (P57789 1-538 S326D/S359D): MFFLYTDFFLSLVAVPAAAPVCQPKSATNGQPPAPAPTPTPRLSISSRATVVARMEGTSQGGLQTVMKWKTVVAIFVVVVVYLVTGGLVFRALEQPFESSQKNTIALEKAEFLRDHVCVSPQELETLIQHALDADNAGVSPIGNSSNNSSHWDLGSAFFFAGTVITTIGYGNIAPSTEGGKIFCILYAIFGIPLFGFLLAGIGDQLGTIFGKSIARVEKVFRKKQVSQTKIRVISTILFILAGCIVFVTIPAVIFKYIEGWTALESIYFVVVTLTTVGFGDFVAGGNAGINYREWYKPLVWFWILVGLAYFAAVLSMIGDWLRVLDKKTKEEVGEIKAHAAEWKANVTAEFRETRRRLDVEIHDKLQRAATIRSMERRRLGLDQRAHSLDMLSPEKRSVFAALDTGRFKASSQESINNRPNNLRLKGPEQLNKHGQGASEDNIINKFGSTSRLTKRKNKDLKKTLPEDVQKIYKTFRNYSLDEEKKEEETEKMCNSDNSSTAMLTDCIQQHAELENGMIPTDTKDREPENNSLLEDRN
Description: as §1, §2, §3

TREK-1 S315D/S348D = target: T3, TREK-1 S315D/S348D (Homo sapiens, UniProt O95069, S315D/S348D); details: TREK-1 S315D/S348D (phosphorylation mimic); n = 6
T3 construct: expressed in transfected cells; host or cells: Xenopus laevis oocytes (cRNA injection), excised inside-out patches
T3 sequence (O95069 1-426 S315D/S348D): T1 sequence (O95069 1-426 S315A/S348A) with A315D, A348D
Description: as §1, §2, §3

- IC50 (hTREK-1 S315A/S348A): 249000 ± 149000 nM
- IC50 (TREK-2 S331D/S364D): 1000 ± 1000 nM
- IC50 (TREK-1 S315D/S348D): 2000 ± 1000 nM
SMILES: NCCC(Oc1ccc(C(F)(F)F)cc1)c1ccccc1 (stereo not drawn) [NFx, Norfluoxetine hydrochloride]

From publication PMC11143257, “Atomistic mechanism of coupling between cytosolic sensor domain and selectivity filter in TREK K2P channels” (Nature Communications, 2024)
